{
  "source": "paper PMC10913730",
  "about": "“Antimicrobial activity of a natural compound and analogs against multi-drug-resistant Gram-positive pathogens” (Microbiology Spectrum, 2024)",
  "key": {"[1]": {"tested_on": "human dermal fibroblast (HDF) cells", "assay": "alamarBlue cell viability assay, HDF", "conditions": "HDFs, 24-hour incubation, non-linear regression"}, "MRSA isolates": {"tested_on": "MRSA isolates", "assay": "MIC/MBC, CLSI broth microdilution, MRSA isolates", "format": "cell-based, Staphylococcus aureus"}, "[2]": {"tested_on": "human bronchial epithelial (16HBE) cells", "assay": "alamarBlue cell viability assay, 16HBE", "conditions": "24-hour incubation, non-linear regression"}, "[3]": {"tested_on": "erythrocytes (sheep blood)", "assay": "Hemolytic activity against sheep erythrocytes"}, "[4]": {"assay": "pH and Ka of 10-g/L aqueous solutions (pH meter)", "format": "physicochemical", "conditions": "10-g/L solution in distilled, deionized water"}, "[5]": {"assay": "Aqueous solubility of compounds reconstituted at 10 mg/mL in water", "conditions": "10 mg/mL in distilled deionized water"}, "[6]": {"conditions": "Staphylococcus aureus, MRSA, pH 5.5, MRSA 0606, pH 5.5"}, "[7]": {"conditions": "Staphylococcus aureus, MRSA, pH 5.5, MRSA 0608, pH 5.5"}, "[8]": {"conditions": "Staphylococcus aureus, MRSA, pH 5.5, MRSA 0634, pH 5.5"}, "[9]": {"conditions": "Staphylococcus aureus, MRSA, pH 5.5, MRSA 0641, pH 5.5"}, "[10]": {"conditions": "Staphylococcus aureus, MRSA, pH 5.5, MRSA 0646, pH 5.5"}, "[11]": {"conditions": "Staphylococcus aureus, MRSA, pH 5.5, TCH 1516, pH 5.5"}, "[12]": {"conditions": "Staphylococcus aureus, MRSA, pH 6.5, MRSA 0606, pH 6.5"}, "[13]": {"conditions": "Staphylococcus aureus, MRSA, pH 6.5, MRSA 0608, pH 6.5"}, "[14]": {"conditions": "Staphylococcus aureus, MRSA, pH 6.5, MRSA 0634, pH 6.5"}, "[15]": {"conditions": "Staphylococcus aureus, MRSA, pH 6.5, MRSA 0641, pH 6.5"}, "[16]": {"conditions": "Staphylococcus aureus, MRSA, pH 6.5, MRSA 0646, pH 6.5"}, "[17]": {"conditions": "Staphylococcus aureus, MRSA, pH 6.5, TCH 1516, pH 6.5"}, "[18]": {"conditions": "Staphylococcus aureus, MRSA, pH 7.4, MRSA 0606, pH 7.4"}, "[19]": {"conditions": "Staphylococcus aureus, MRSA, pH 7.4, MRSA 0608, pH 7.4"}, "[20]": {"conditions": "Staphylococcus aureus, MRSA, pH 7.4, MRSA 0634, pH 7.4"}, "[21]": {"conditions": "Staphylococcus aureus, MRSA, pH 7.4, MRSA 0641, pH 7.4"}, "[22]": {"conditions": "Staphylococcus aureus, MRSA, pH 7.4, MRSA 0646, pH 7.4"}, "[23]": {"conditions": "Staphylococcus aureus, MRSA, pH 7.4, TCH 1516, pH 7.4"}},
  "note": "Like-named read-outs stand apart in the source and are kept apart here.",
  "data": [
    {"compound": "[Na+].[Na+].[O-]c1c(Cl)cc(Cl)cc1-c1cc(Cl)cc(Cl)c1[O-]", "note": "[C59Na]", "values": [
      {"measurement": "LD50", "setting": "[1]", "value": 57.5, "unit": "µg/mL"},
      {"measurement": "MIC90", "setting": "MRSA isolates; Staphylococcus aureus, MRSA, 39 evaluated MRSA isolates, CLSI broth microdilution", "value": 4, "unit": "µg/mL"},
      {"measurement": "MBC", "setting": "MRSA isolates; [6]", "value": 0.25, "unit": "µg/mL"},
      {"measurement": "MIC", "setting": "MRSA isolates; [6]", "value": 0.25, "unit": "µg/mL"},
      {"measurement": "MBC", "setting": "MRSA isolates; [7]", "value": 0.25, "unit": "µg/mL"},
      {"measurement": "MIC", "setting": "MRSA isolates; [7]", "value": 0.25, "unit": "µg/mL"},
      {"measurement": "MBC", "setting": "MRSA isolates; [8]", "value": 0.25, "unit": "µg/mL"},
      {"measurement": "MIC", "setting": "MRSA isolates; [8]", "value": 0.25, "unit": "µg/mL"},
      {"measurement": "MBC", "setting": "MRSA isolates; [9]", "value": 0.25, "unit": "µg/mL"},
      {"measurement": "MIC", "setting": "MRSA isolates; [9]", "value": 0.25, "unit": "µg/mL"},
      {"measurement": "MBC", "setting": "MRSA isolates; [10]", "value": 0.25, "unit": "µg/mL"},
      {"measurement": "MIC", "setting": "MRSA isolates; [10]", "value": 0.25, "unit": "µg/mL"},
      {"measurement": "MBC", "setting": "MRSA isolates; [11]", "value": 0.25, "unit": "µg/mL"},
      {"measurement": "MIC", "setting": "MRSA isolates; [11]", "value": 0.25, "unit": "µg/mL"},
      {"measurement": "MBC", "setting": "MRSA isolates; Staphylococcus aureus, MRSA, pH 5.5, read-out: Average MBC, average of six MRSA isolates, pH 5.5", "value": 0.25, "unit": "µg/mL"},
      {"measurement": "MIC", "setting": "MRSA isolates; Staphylococcus aureus, MRSA, pH 5.5, read-out: Average MIC, average of six MRSA isolates, pH 5.5", "value": 0.25, "unit": "µg/mL"},
      {"measurement": "MBC", "setting": "MRSA isolates; [12]", "value": 1, "unit": "µg/mL"},
      {"measurement": "MIC", "setting": "MRSA isolates; [12]", "value": 0.5, "unit": "µg/mL"},
      {"measurement": "MBC", "setting": "MRSA isolates; [13]", "value": 1, "unit": "µg/mL"},
      {"measurement": "MIC", "setting": "MRSA isolates; [13]", "value": 1, "unit": "µg/mL"},
      {"measurement": "MBC", "setting": "MRSA isolates; [14]", "value": 1, "unit": "µg/mL"},
      {"measurement": "MIC", "setting": "MRSA isolates; [14]", "value": 1, "unit": "µg/mL"},
      {"measurement": "MBC", "setting": "MRSA isolates; [15]", "value": 1, "unit": "µg/mL"},
      {"measurement": "MIC", "setting": "MRSA isolates; [15]", "value": 0.5, "unit": "µg/mL"},
      {"measurement": "MBC", "setting": "MRSA isolates; [16]", "value": 1, "unit": "µg/mL"},
      {"measurement": "MIC", "setting": "MRSA isolates; [16]", "value": 0.5, "unit": "µg/mL"},
      {"measurement": "MBC", "setting": "MRSA isolates; [17]", "value": 2, "unit": "µg/mL"},
      {"measurement": "MIC", "setting": "MRSA isolates; [17]", "value": 1, "unit": "µg/mL"},
      {"measurement": "MBC", "setting": "MRSA isolates; Staphylococcus aureus, MRSA, pH 6.5, read-out: Average MBC, average of six MRSA isolates, pH 6.5", "value": 1.2, "unit": "µg/mL"},
      {"measurement": "MIC", "setting": "MRSA isolates; Staphylococcus aureus, MRSA, pH 6.5, read-out: Average MIC, average of six MRSA isolates, pH 6.5", "value": 0.75, "unit": "µg/mL"},
      {"measurement": "MBC", "setting": "MRSA isolates; [18]", "value": 2, "unit": "µg/mL"},
      {"measurement": "MIC", "setting": "MRSA isolates; [18]", "value": 2, "unit": "µg/mL"},
      {"measurement": "MBC", "setting": "MRSA isolates; [19]", "value": 4, "unit": "µg/mL"},
      {"measurement": "MIC", "setting": "MRSA isolates; [19]", "value": 2, "unit": "µg/mL"},
      {"measurement": "MBC", "setting": "MRSA isolates; [20]", "value": 2, "unit": "µg/mL"},
      {"measurement": "MIC", "setting": "MRSA isolates; [20]", "value": 2, "unit": "µg/mL"},
      {"measurement": "MBC", "setting": "MRSA isolates; [21]", "value": 4, "unit": "µg/mL"},
      {"measurement": "MIC", "setting": "MRSA isolates; [21]", "value": 2, "unit": "µg/mL"},
      {"measurement": "MBC", "setting": "MRSA isolates; [22]", "value": 4, "unit": "µg/mL"},
      {"measurement": "MIC", "setting": "MRSA isolates; [22]", "value": 1, "unit": "µg/mL"},
      {"measurement": "MBC", "setting": "MRSA isolates; [23]", "value": 2, "unit": "µg/mL"},
      {"measurement": "MIC", "setting": "MRSA isolates; [23]", "value": 2, "unit": "µg/mL"},
      {"measurement": "MBC", "setting": "MRSA isolates; Staphylococcus aureus, MRSA, pH 7.4, read-out: Average MBC, average of six MRSA isolates, pH 7.4", "value": 3, "unit": "µg/mL"},
      {"measurement": "MIC", "setting": "MRSA isolates; Staphylococcus aureus, MRSA, pH 7.4, read-out: Average MIC, average of six MRSA isolates, pH 7.4", "value": 1.8, "unit": "µg/mL"},
      {"measurement": "MBC", "setting": "MRSA isolates; Staphylococcus aureus, MRSA, read-out: MBC90, 39 evaluated MRSA isolates, CLSI broth microdilution", "value": 12, "unit": "µg/mL"},
      {"measurement": "change of MIC and MBC with the reduction in pH", "setting": "MRSA isolates; six MRSA isolates, pH lowered to 5.5", "value": "decreased"},
      {"measurement": "LD50", "setting": "[2]", "value": 30.0, "unit": "µg/mL"},
      {"measurement": "concentrations at which erythrocytes were not lysed", "setting": "[3]; 1% sheep blood, 1-hour incubation", "value": "up to 24 µg/mL"},
      {"measurement": "LD50 relative to MIC90", "setting": "[3]; higher than MIC90, stated in the hemolysis discussion, cell type not named", "value": 10, "unit": "fold"},
      {"measurement": "acid dissociation constant (Ka)", "setting": "[4]", "value": "1.54 × 10^−16"},
      {"measurement": "pH of solution", "setting": "[4]; room temperature", "value": 8.69},
      {"measurement": "aqueous solubility", "setting": "[5]", "value": "moderate aqueous solubility"}
    ]}
  ]
}
